We go through one substance from US20090227533A1, “miR-34 Regulated Genes and Pathways as Targets for Therapeutic Intervention” (priority 2007, published 2009).

In one data set the test system is LNCaP cells. Put plainly: Alamar Blue proliferation assay, prostate cancer cells. Particulars: 30 nM, normalized to negative control miRNA (100% proliferation). The format is cell-based, human. From the text: (§1) The inventors assessed the therapeutic effect of hsa-miR-34a for prostate cancer by using four individual human prostate cancer cell lines. To measure cellular proliferation of prostate cancer cells, the following prostate cancer cell lines were used: PPC-1, derived from a bone metastasis; Du145, derived from a brain metastasis; RWPE2, derived from prostate cells immortalized by human papillomavirus 18 and transformed by the K-RAS oncogene; and LNCaP, derived from a lymph node metastasis (Bello et al., 1997; Pretlow et al., 1993; Stone et al., 1978; Brothman et al., 1991; Horoszewicz et al., 1980). PPC-1 and Du145 cells lack expression of the prostate-specific antigen (PSA) and are independent of androgen receptor (AR) signaling. In contrast, RWPE2 and LNCaP cells test positive for PSA and AR. Cells were transfected with synthetic hsa-miR-34a (Pre-miR™-hsa-miR-34a, Ambion cat. no. AM17100) or negative control miRNA (NC; Pre-miR™ microRNA Precursor Molecule-Negative Control #2; Ambion cat. no. AM17111) in a 96-well format using a lipid-based transfection reagent. Lipid-based reverse transfections were carried out in triplicate according to a published protocol (Ovcharenko et al., 2005) and the following parameters: cells (6,000-7,000 per 96 well), 0.1-0.2 μl Lipofectamine™ 2000 (cat. no. 11668-019, Invitrogen Corp., Carlsbad, Calif., USA) in 20 μl OptiMEM (Invitrogen), 30 nM final concentration of miRNA in 100 μl. Proliferation was assessed 4-7 days post-transfection using Alamar Blue™ (Invitrogen) following the manufacturer's instructions. As a control for inhibition of cellular proliferation, siRNA against the motor protein kinesin 11, also known as Eg5, was used. Eg5 is essential for cellular survival of most eukaryotic cells and a lack thereof leads to reduced cell proliferation and cell death (Weil et al., 2002). siEg5 was used in lipid-based transfection following the same experimental parameters that apply to miRNA. Fluorescent light units (FLU) were measured after 3 hours, normalized to the control, and plotted as percent change in proliferation. Percent proliferation of hsa-miR-34a treated cells relative to cells treated with negative control miRNA (100%) is shown in Table 9 and in FIG. 5.
For orientation: Alamar Blue is a resazurin reagent that responds to reducing activity.

A further data set relates to RWPE2 cells. The data set is described as above. The format is cell-based, human. The conditions noted are these: 30 nM, normalized to negative control miRNA (100% proliferation).
Source text: as §1

In the next data set the test system is PPC-1 cells. The description is as above. The format is cell-based, human. Particulars: 30 nM, normalized to negative control miRNA (100% proliferation).
Source text: as §1

In the next data set the test system is Du145 cells. The data set is described as above. It is filed as cell-based, human. The conditions noted are these: 30 nM, normalized to negative control miRNA (100% proliferation).
Source text: as §1

Data set [1] deals with leukemic T cells (Jurkat). The conditions noted are these: cited from earlier work.
Data set [2] concerns lung cancer cells A549, H522, H596, Calu-3, HCC2935, H1650, H460, and H226. Put plainly: Alamar Blue proliferation assay, average over eight lung cancer cell lines. It is filed as cell-based, human. From the text: The inventors assessed the therapeutic effect of hsa-miR-34a for lung cancer by using eight individual lung cancer cell lines. To measure cellular proliferation of lung cancer cells, the following non-small cell lung cancer (NSCLC) cells were used: cells derived from lung adenocarcinoma (A549, H522, Calu-3, HCC2935), cells derived from lung squamous cell carcinoma (H226), cell derived from lung adenosquamous cell carcinoma (H596), cells derived from lung bronchioalveolar carcinoma (H1650), and cells derived from lung large cell carcinoma (H460). Synthetic hsa-miR-34a (Pre-miR™-hsa-miR-34a, Ambion cat. no. AM17100) or negative control (NC) miRNA (Pre-miR™ microRNA Precursor Molecule-Negative Control #2; Ambion cat. no. AM17111) was delivered via lipid-based transfection into A549, H522, H596, Calu-3, HCC2935, H1650, H460 cells and via electroporation into H226 cells.
Lipid-based reverse transfections were carried out in triplicate according to a published protocol (Ovcharenko et al., 2005) and the following parameters: cells (5,000-12,000 per 96 well), 0.1-0.2 μl Lipofectamine™ 2000 (cat. no. 11668-019, Invitrogen Corp., Carlsbad, Calif., USA) in 20 μl OptiMEM (Invitrogen), 30 nM final concentration of miRNA in 100 μl. […]

“hsa-miR-34a: synthetic miRNA; mature sequence UGGCAGUGUCUUAGCUGGUUGUU (MIMAT0000255; SEQ ID NO:1) (synthetic miRNA, chemistry not given here)”: the “% proliferation” value turned out to be 49.40% in the data set with LNCaP cells, 95.96% in the data set with RWPE2 cells, 24.65% in the data set on PPC-1 cells and 81.26% in the data set on Du145 cells. The proliferation result in data set [1] is given as “inhibits the proliferation”. In data set [2] (average over eight lung cancer cell lines, relative to negative control miRNA), the “average inhibition of cellular proliferation” value is listed as 25.30%. The “growth-inhibitory activity compared with etoposide” value in data set [2] (lung cancer cell lines) was “comparable to that of etoposide at concentrations ≧10 μM”.
